# Results as given in patent US20070167369A1, “Novel use of isolated polypeptide comprising four FAS-1 domains, EM1 domain and RGD motif” (KYUNGPOOK NATIONAL UNIVERSITY INDUSTRY-ACADEMIC COOPERATION …, priority 2004, published 2007).
# Test system: caspase-3
# Assay: Caspase-3 activity in HUVECs (Example 7-2)
# Assay type: cell-based, human
# Conditions: caspase-3-specific inhibitor added to samples
# Protocol: With respect to the induction of endothelial cell apoptosis (active cell death) by the fas-1 domain, which had been confirmed in Example 7-1 above, the present inventors measured the activity of caspase-3, which is activated when apoptosis occurs, in the cells treated with the fas-1 domain.
# HUVECs were spread onto a 100-mm plate (10 ml culture solution) with M199 medium containing 10% FBS, followed by incubation in a 37° C. incubator for 12 hours. After the incubation, the medium was removed from the plate, the cells were added with fresh medium containing 0.1% FBS and further incubated for 24 hours. The cell-containing medium was treated with 5 μM or 20 μM of the fas-1 domain (βig-h3 D-IV) prepared in Example 1. A control was treated with PBS buffer. At 12 hours and 24 hours after the treatment, the cells were harvested. The caspase-3 activity of the cells was measured with an EnzCheck Caspase-3 Assay Kit(#2) (Molecular Probe Co., Eugene, Oreg., USA). Moreover, to verify that measured values are attributed to caspase-3 activity, each of the samples was treated with DEVD-CHO (Molecular Probe Co., Eugene, Oreg., USA) as a caspase-3-specific inhibitor. The control was treated with DMSO.
substance,measurement,value
DEVD-CHO [reference compound],inhibition of caspase-3 activities of test groups and control group,inhibited
